Reference: article PMC7177633, “Effective Cellular Transport of Ortho-Halogenated Sulfonamide Derivatives of Metformin Is Related to Improved Antiproliferative Activity and Apoptosis Induction in MCF-7 Cells” (International Journal of Molecular Sciences, 2020)
“And” between values parts separate entries of the source, which are not always exact repeats. Equal entries are not always repeated. Where two headings read alike, the source gives them in different places.

Legend:
[1] = system: MDA-MB-231 cells; test: Cell viability WST-1 assay, MDA-MB-231; format: cell-based; details: Homo sapiens, MDA-MB-231; WST-1, 24 h, mean ± SD (n = 6–8); read-out: IC50 inhibition of MDA-MB-231 cells' viability
Experimental: (§1) The viability of MCF-7 and MDA-MB-231 cells was determined using a colorimetric WST-1 assay (Takara, Takara Bio Europe, Saint-Germain-en-Laye, France). Both cell lines were seeded at a density of 1 × 10^4 per well on 96-well plates and were cultured for 24 h to obtain 70% confluence. The following day, the cells were treated with various concentrations of compounds 1–9 diluted in the cell culture medium ([…]). The cells were incubated with tested compounds or pure medium (control) for 24 h (37 °C, 5% CO2). Afterwards, the cells were washed with 100 μL of culture medium, and then, the reagent dissolved in the medium was added (100 μL). The plates were incubated at the standard condition for 1.5 h, and the absorbance was read at 450 nm using a microplate reader (iMARK, Bio-Rad, Bio-Rad Laboratories Inc., Hercules, CA, USA). […] The results of samples treated with the test compounds were expressed as a percentage of the control samples. The data were presented as mean ± standard deviation (SD), n = 8. IC50 values (the concentration of the tested compound that inhibited cell growth by 50%) were calculated using a concentration-response curve (GraphPad Prism, Software, San Diego, CA, USA).
(§2) The concentrations contributing to the 50% of cell growth inhibition (IC50) were calculated using nonlinear regression analysis (fitting the curve to log (concentration) vs. cellular response).

[2] = system: MDA-MB-231 cells; test: Uptake in the presence of OCT and MATE inhibitors, MDA-MB-231 cells; format: in vitro ADME, human
Experimental: (§3) The uptake of sulfonamide derivatives of metformin (1–9) in MCF-7 and MDA-MB-231 cells was studied also in the presence of disopyramide, cimetidine (OCT1 and 3 inhibitors), lopinavir (OCT and PMAT inhibitor) and methenamine (MATE and OCT2 inhibitors). The cells were incubated (37 °C, 10 min) with compounds 1–9 at concentrations of 400 and 800 μmol/L and inhibitors (disopyramide, cimetidine, lopinavir or methenamine) in 250 μL of prewarmed HBSS buffer. The protocol of determination of the compound concentration was as described above.

[3] = system: OCTs; test: Inhibition of [14C]choline uptake in MDA-MB-231 cells (competitive inhibition assay); format: cell-based, human; details: mean ± SD (n = 3)
Experimental: The following day, after removal of the culture medium, the cells were carefully washed with prewarmed HBSS (Hanks’ balanced salt solution) containing 125 mM NaCl, 4.8 mM KCl, 1.2 mM MgSO4, 1.2 mM KH2PO4, 1.3 mM CaCl2, 5.6 mM glucose and 25 mM HEPES (pH 7.4). […] Then, the cells were washed three times with ice-cold HBSS (500 μL) and were lysed with 250 μL of 0.1-M NaOH in the ice bath, and the lysate was mixed with 1.0 mL of an emulsifier safe cocktail (PerkinElmer, Waltham, MA, USA). The radioactivity was measured by liquid scintillation counting (MicroBeta^2 counter, PerkinElmer, Waltham, MA, USA). The studies were carried out with the use of at least three replicates from the same cell passage.

[4] = system: HUVECs; set-up: method as in PMID 31776031; details: concentration range 10–3000 µmol/L; read-out: IC50 viability of HUVECs; cited from earlier work
[5] = system: MCF-7 cells; test: Cell viability WST-1 assay, MCF-7; format: cell-based; details: Homo sapiens, MCF7; WST-1, 24 h, mean ± SD (n = 6–8); read-out: IC50 inhibition of MCF-7 cells' viability
Experimental: as §1, §2

[6] = system: AoSMC; set-up: method as in PMID 31776031; details: concentration range 10–3000 µmol/L; read-out: IC50 viability of AoSMCs; cited from earlier work
[7] = system: MCF-7 cells; test: Uptake in the presence of OCT and MATE inhibitors, MCF-7 cells; format: in vitro ADME, human
Experimental: as §3

[8] = system: MCF-7 cells; test: Cellular uptake of metformin sulfonamides in MCF-7 cells (HPLC); format: in vitro ADME, human
Experimental: (§4) The uptake of metformin sulfonamides (1–9) in MCF-7 and MDA-MB-231 cells was studied by incubation of the cells with 10−3000 μmol/L of compounds in 250 μL of prewarmed HBSS buffer at 37 °C for 10 min. Subsequently, the cells were then washed three times with 500 μL of ice-cold HBSS and lysed with 250 μL of 0.1-M NaOH. The samples were collected, centrifuged (5 min, 1400 rpm) and the supernatants were analyzed by the HPLC method. The concentration of each compound in the cells was calculated on the basis of the standard curve prepared by spiking known amounts of every compound on the cell layers in 250 μL of 0.1-M NaOH.
(§5) The concentration of the studied sulfonamides (1–9) was assessed using the HPLC system, consisting of an Agilent 1100 binary pump (Agilent Technologies Inc., Wilmington, DE, USA), an 1100 micro-vacuum degasser, an HP 1050 autosampler and an HP 1050 variable wavelength detector (operated at 235 nm). The chromatographic separations of compounds 1–9 were conducted on an Agilent Zorbax SB-C18 analytical column (4.6 mm × 150 mm, 5 μm) using an isocratic elution of water containing 0.1% formic acid (pH ca. 3.0) and acetonitrile containing 0.1% formic acid with a changing ratio, depending on the compound. The analyses were conducted at room temperature (RT). The detailed procedure of chromatographic analysis was described in our previous paper. The studies were conducted in quadruplicates.
(§6) The protein concentrations in representative wells of each plate were assessed using a Bio-Rad protein assay according to the Bradford method (EnVision, PerkinElmer, Inc., Waltham, MA, USA).

[9] = system: MDA-MB-231 cells; test: Cellular uptake of metformin sulfonamides in MDA-MB-231 cells (HPLC); format: in vitro ADME, human
Experimental: as §4, §5, §6

[10] = compound and inhibitor 400 and 800 µmol/L, 10 min, 37 °C
[11] = summary from uptake with inhibitors
[12] = 800 μmol/L, 10 min incubation, 37 °C
[13] = Eadie-Hofstee analysis, transporter I
[14] = Eadie-Hofstee analysis, transporter II

IC50 [1]: 1040 ± 134 µM | uptake in the presence of disopyramide, MDA-MB-231 [2, 10]: significantly lower uptake | uptake in the presence of lopinavir, MDA-MB-231 [2, 10]: increased uptake | uptake in the presence of methenamine, MDA-MB-231 [2, 10]: increased uptake | interactions with OCT, PMAT and MATE1 transporters, MDA-MB-231 [2, 11]: OCT1, PMAT, MATE1 | IC50 [3]: 3760 ± 124 µM | IC50 [5]: 1430 ± 135 µM | uptake in the presence of cimetidine, MCF-7 [7, 10]: did not change | uptake in the presence of disopyramide, MCF-7 [7, 10]: did not change | uptake in the presence of lopinavir, MCF-7 [7, 10]: did not change | uptake in the presence of methenamine, MCF-7 [7, 10]: significant decrease | interactions with OCT, PMAT and MATE1 transporters, MCF-7 [7, 11]: OCT1,MATE1 | uptake into MCF-7 cells [8, 12]: 0.84 ± 0.06 nmol/min/mg protein | uptake into MDA-MB-231 cells [9, 12]: 0.42 ± 0.15 nmol/min/mg protein
SMILES: CN(C)C(=N)N=C(N)NS(=O)(=O)c1ccc(Cl)cc1 [Compound 3]
IC50 [4]: 1770 ± 120 µM | IC50 [6]: 1890 ± 110 µM | Vmax, transporter I, MCF-7 [8, 13]: 1.61 nmol/min/mg and 1.614 ± 0.11 nmol/min/mg | Km ([8]; Eadie-Hofstee analysis, transporter I, read-out: Km, transporter I, MCF-7): 0.813 ± 0.0865 mM | Vmax, transporter II, MCF-7 [8, 14]: 10.76 ± 0.88 nmol/min/mg | Km ([8]; Eadie-Hofstee analysis, transporter II, read-out: Km, transporter II, MCF-7): 8.81 ± 0.791 mM | Vmax MCF-7 (Michaelis Menten curves) ([8]; Michaelis-Menten curve): 5.073 ± 1.96 nmol/min/mg | Km ([8]; Michaelis-Menten curve, read-out: Km MCF-7 (Michaelis Menten curves)): 3.58 ± 1.71 mM | Vmax, transporter I, MDA-MB-231 [9, 13]: 1.390 ± 0.23 nmol/min/mg | Km ([9]; Eadie-Hofstee analysis, transporter I, read-out: Km, transporter I, MDA-MB-231): 2.37 ± 0.48 mM | Vmax, transporter II, MDA-MB-231 [9, 14]: 2.20 ± 0.41 nmol/min/mg | Km ([9]; Eadie-Hofstee analysis, transporter II, read-out: Km, transporter II, MDA-MB-231): 4.67 ± 0.932 mM | transport efficacy (Vmax/Km) in MCF-7 relative to MDA-MB-231 ([9]; fold lower in MDA-MB-231 than in MCF-7): 2.4–3.2 fold
